Molecular target: T1, chimeric human H3 receptor (Homo sapiens, UniProt Q9Y5N1, E19D)
T1 construct: made in house; host or cells: Sf9 insect cells (baculovirus infection); P2 membrane preparation
Assay: Chimeric human H3 receptor GTP binding assay (agonist-stimulated GTP-gamma35S binding, Example 7)
Type: biochemical
Conditions: Table II; assay of Example 7; "*" in Ki; read-out: Ki
Procedure, shortened: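 IC50 values come from non-linear regression of dose-response curves of filter-bound GTP-gamma^35S, counted by scintillation. Membranes were from infected Sf9 cells carrying receptor plus G-protein subunits, 35 μg/tube, with 10 μM GDP present.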

T1 sequence (Q9Y5N1 with tags, fused parts or gaps E19D): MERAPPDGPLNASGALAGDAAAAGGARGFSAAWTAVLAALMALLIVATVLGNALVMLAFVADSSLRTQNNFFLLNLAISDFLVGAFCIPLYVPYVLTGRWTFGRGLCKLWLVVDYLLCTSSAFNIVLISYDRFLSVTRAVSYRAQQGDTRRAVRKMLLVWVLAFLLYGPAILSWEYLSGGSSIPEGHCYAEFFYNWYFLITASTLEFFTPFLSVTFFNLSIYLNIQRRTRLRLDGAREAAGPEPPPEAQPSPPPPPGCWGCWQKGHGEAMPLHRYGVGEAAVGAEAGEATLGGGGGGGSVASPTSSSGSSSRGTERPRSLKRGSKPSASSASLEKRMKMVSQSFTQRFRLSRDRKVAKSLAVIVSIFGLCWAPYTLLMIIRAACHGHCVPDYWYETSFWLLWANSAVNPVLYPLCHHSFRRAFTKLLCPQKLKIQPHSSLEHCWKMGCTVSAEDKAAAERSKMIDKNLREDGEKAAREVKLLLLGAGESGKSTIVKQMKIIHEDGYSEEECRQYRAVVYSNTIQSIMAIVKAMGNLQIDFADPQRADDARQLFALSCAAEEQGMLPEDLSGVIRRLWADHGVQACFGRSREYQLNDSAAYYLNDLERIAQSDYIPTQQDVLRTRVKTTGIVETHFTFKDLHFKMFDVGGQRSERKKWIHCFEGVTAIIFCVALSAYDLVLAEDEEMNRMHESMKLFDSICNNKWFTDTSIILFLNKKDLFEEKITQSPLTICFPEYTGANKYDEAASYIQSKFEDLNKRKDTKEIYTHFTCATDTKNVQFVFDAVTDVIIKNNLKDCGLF

| Compound | Ki |
| --- | --- |
| CN(C)c1cccc(-c2cnc(N3CCN(CC(=O)N4CCN(C5CCC5)CC4)CC3)cn2)c1 [Compound 993, 3-(5-{4-[2-(4-cyclobutylpiperazin-1-yl)-2-oxoethyl]piperazin-1-yl}pyrazin-2-yl)-N,N-dimethylaniline] | < 1 µM |
| N#Cc1cccc(-c2cnc(N3CCN(CC(=O)N4CCN(C5CCC5)CC4)CC3)cn2)c1 [Compound 994, 3-(5-{4-[2-(4-cyclobutylpiperazin-1-yl)-2-oxoethyl]piperazin-1-yl}pyrazin-2-yl)benzonitrile] | < 1 µM |
| COc1ccc(Cl)cc1-c1ccc(N2CCN(CC(=O)N3CCN(C4CCC4)CC3)CC2)nn1 [Compound 995, 3-(5-chloro-2-methoxyphenyl)-6-{4-[2-(4-cyclobutylpiperazin-1-yl)-2-oxoethyl]piperazin-1-yl}pyridazine] | < 1 µM |
| CN(C)c1cccc(-c2ccc(N3CCN(CC(=O)N4CCN(C5CCC5)CC4)CC3)nn2)c1 [Compound 996, 3-(6-{4-[2-(4-cyclobutylpiperazin-1-yl)-2-oxoethyl]piperazin-1-yl}pyridazin-3-yl)-N,N-dimethylaniline] | < 1 µM |
| N#Cc1cccc(-c2ccc(N3CCN(CC(=O)N4CCN(C5CCC5)CC4)CC3)nn2)c1 [Compound 997, 3-(6-{4-[2-(4-cyclobutylpiperazin-1-yl)-2-oxoethyl]piperazin-1-yl}pyridazin-3-yl)benzonitrile] | < 1 µM |
| O=C(CN1CCN(c2ccc(-c3cc(C(F)(F)F)cc(C(F)(F)F)c3)nn2)CC1)N1CCN(C2CCC2)CC1 [Compound 998, 3-[3,5-bis(trifluoromethyl)phenyl]-6-{4-[2-(4-cyclobutylpiperazin-1-yl)-2-oxoethyl]piperazin-1-yl}pyridazine] | < 1 µM |
| COc1ccc(N2CCN(CC(=O)N3CCN(C4CCC4)CC3)CC2)nn1 [Compound 999, 3-{4-[2-(4-cyclobutylpiperazin-1-yl)-2-oxoethyl]piperazin-1-yl}-6-methoxypyridazine] | < 1 µM |
| O=C(CN1CCN(c2ccc(-c3ccncc3)nn2)CC1)N1CCN(C2CCC2)CC1 [Compound 1000, 3-{4-[2-(4-cyclobutylpiperazin-1-yl)-2-oxoethyl]piperazin-1-yl}-6-pyridin-4-ylpyridazine] | < 1 µM |
| O=C(CN1CCN(c2ccc(-c3cncnc3)nn2)CC1)N1CCN(C2CCC2)CC1 [Compound 1001, 3-{4-[2-(4-cyclobutylpiperazin-1-yl)-2-oxoethyl]piperazin-1-yl}-6-pyrimidin-5-ylpyridazine] | < 1 µM |
| O=C(CN1CCN(c2ccc(-c3ccccc3)nn2)CC1)N1CCN(C2CCC2)CC1 [Compound 1002, 3-{4-[2-(4-cyclobutylpiperazin-1-yl)-2-oxoethyl]piperazin-1-yl}-6-phenylpyridazine] | < 1 µM |
| O=C(CN1CCN(c2ccc(-c3ccc(F)cc3)nn2)CC1)N1CCN(C2CCC2)CC1 [Compound 1003, 3-{4-[2-(4-cyclobutylpiperazin-1-yl)-2-oxoethyl]piperazin-1-yl}-6-(4-fluorophenyl)pyridazine] | < 1 µM |
| O=C(CN1CCN(c2ccc(-c3cccc(F)c3)nn2)CC1)N1CCN(C2CCC2)CC1 [Compound 1004, 3-{4-[2-(4-cyclobutylpiperazin-1-yl)-2-oxoethyl]piperazin-1-yl}-6-(3-fluorophenyl)pyridazine] | < 1 µM |
| O=C(CN1CCN(c2ccc(-c3ccccc3F)nn2)CC1)N1CCN(C2CCC2)CC1 [Compound 1005, 3-{4-[2-(4-cyclobutylpiperazin-1-yl)-2-oxoethyl]piperazin-1-yl}-6-(2-fluorophenyl)pyridazine] | < 1 µM |
| O=C(CN1CCN(c2ccc(-c3ccc4ccccc4c3)nn2)CC1)N1CCN(C2CCC2)CC1 [Compound 1006, 3-{4-[2-(4-cyclobutylpiperazin-1-yl)-2-oxoethyl]piperazin-1-yl}-6-(2-naphthyl)pyridazine] | < 1 µM |
| Cc1ccc(-c2ccc(N3CCN(CC(=O)N4CCN(C5CCC5)CC4)CC3)nn2)c(F)c1 [Compound 1007, 3-{4-[2-(4-cyclobutylpiperazin-1-yl)-2-oxoethyl]piperazin-1-yl}-6-(2-fluoro-4-methylphenyl)pyridazine] | < 1 µM |
| Cc1ccc(F)c(-c2ccc(N3CCN(CC(=O)N4CCN(C5CCC5)CC4)CC3)nn2)c1 [Compound 1008, 3-{4-[2-(4-cyclobutylpiperazin-1-yl)-2-oxoethyl]piperazin-1-yl}-6-(2-fluoro-5-methylphenyl)pyridazine] | < 1 µM |
| Cc1ccc(-c2ccc(N3CCN(CC(=O)N4CCN(C5CCC5)CC4)CC3)nn2)cc1F [Compound 1009, 3-{4-[2-(4-cyclobutylpiperazin-1-yl)-2-oxoethyl]piperazin-1-yl}-6-(3-fluoro-4-methylphenyl)pyridazine] | < 1 µM |
| Cc1cc(-c2ccc(N3CCN(CC(=O)N4CCN(C5CCC5)CC4)CC3)nn2)ccc1F [Compound 1010, 3-{4-[2-(4-cyclobutylpiperazin-1-yl)-2-oxoethyl]piperazin-1-yl}-6-(4-fluoro-3-methylphenyl)pyridazine] | < 1 µM |

| Compound | Ki |
| --- | --- |
| Cc1cccc(-c2ccc(N3CCN(CC(=O)N4CCN(C5CCC5)CC4)CC3)nn2)c1 [Compound 1011, 3-{4-[2-(4-cyclobutylpiperazin-1-yl)-2-oxoethyl]piperazin-1-yl}-6-(3-methylphenyl)pyridazine] | < 1 µM |
| Cc1ccc(-c2ccc(N3CCN(CC(=O)N4CCN(C5CCC5)CC4)CC3)nn2)cc1 [Compound 1012, 3-{4-[2-(4-cyclobutylpiperazin-1-yl)-2-oxoethyl]piperazin-1-yl}-6-(4-methylphenyl)pyridazine] | < 1 µM |
| CC(C)c1cccc(-c2ccc(N3CCN(CC(=O)N4CCN(C5CCC5)CC4)CC3)nn2)c1 [Compound 1013, 3-{4-[2-(4-cyclobutylpiperazin-1-yl)-2-oxoethyl]piperazin-1-yl}-6-(3-isopropylphenyl) pyridazine] | < 1 µM |
| CC(C)c1ccc(-c2ccc(N3CCN(CC(=O)N4CCN(C5CCC5)CC4)CC3)nn2)cc1 [Compound 1014, 3-{4-[2-(4-cyclobutylpiperazin-1-yl)-2-oxoethyl]piperazin-1-yl}-6-(4-isopropylphenyl) pyridazine] | < 1 µM |
| Cc1ccc(-c2ccc(N3CCN(CC(=O)N4CCN(C5CCC5)CC4)CC3)nn2)cc1C [Compound 1015, 3-{4-[2-(4-cyclobutylpiperazin-1-yl)-2-oxoethyl]piperazin-1-yl}-6-(3,4-dimethylphenyl) pyridazine] | < 1 µM |
| Cc1cc(C)cc(-c2ccc(N3CCN(CC(=O)N4CCN(C5CCC5)CC4)CC3)nn2)c1 [Compound 1016, 3-{4-[2-(4-cyclobutylpiperazin-1-yl)-2-oxoethyl]piperazin-1-yl}-6-(3,5-dimethylphenyl) pyridazine] | < 1 µM |
| CCc1ccc(-c2ccc(N3CCN(CC(=O)N4CCN(C5CCC5)CC4)CC3)nn2)cc1 [Compound 1017, 3-{4-[2-(4-cyclobutylpiperazin-1-yl)-2-oxoethyl]piperazin-1-yl}-6-(4-ethylphenyl)pyridazine] | < 1 µM |
| CCCc1ccc(-c2ccc(N3CCN(CC(=O)N4CCN(C5CCC5)CC4)CC3)nn2)cc1 [Compound 1018, 3-{4-[2-(4-cyclobutylpiperazin-1-yl)-2-oxoethyl]piperazin-1-yl}-6-(4-propylphenyl)pyridazine] | < 1 µM |
| CCc1cccc(-c2ccc(N3CCN(CC(=O)N4CCN(C5CCC5)CC4)CC3)nn2)c1 [Compound 1019, 3-{4-[2-(4-cyclobutylpiperazin-1-yl)-2-oxoethyl]piperazin-1-yl}-6-(3-ethylphenyl)pyridazine] | < 1 µM |
| COc1cccc(-c2ccc(N3CCN(CC(=O)N4CCN(C5CCC5)CC4)CC3)nn2)c1 [Compound 1020, 3-{4-[2-(4-cyclobutylpiperazin-1-yl)-2-oxoethyl]piperazin-1-yl}-6-(3-methoxyphenyl) pyridazine] | < 1 µM |
| O=C(CN1CCN(c2ccc(-c3ccc(OC(F)(F)F)cc3)nn2)CC1)N1CCN(C2CCC2)CC1 [Compound 1021, 3-{4-[2-(4-cyclobutylpiperazin-1-yl)-2-oxoethyl]piperazin-1-yl}-6-[4-(trifluoromethoxy)phenyl] pyridazine] | < 1 µM |
| CCOc1cccc(-c2ccc(N3CCN(CC(=O)N4CCN(C5CCC5)CC4)CC3)nn2)c1 [Compound 1022, 3-{4-[2-(4-cyclobutylpiperazin-1-yl)-2-oxoethyl]piperazin-1-yl}-6-(3-ethoxyphenyl)pyridazine] | < 1 µM |
| O=C(CN1CCN(c2ccc(-c3cccc(OC(F)(F)F)c3)nn2)CC1)N1CCN(C2CCC2)CC1 [Compound 1024, 3-{4-[2-(4-cyclobutylpiperazin-1-yl)-2-oxoethyl]piperazin-1-yl}-6-[3-(trifluoromethoxy)phenyl} pyridazine] | < 1 µM |
| CSc1cccc(-c2ccc(N3CCN(CC(=O)N4CCN(C5CCC5)CC4)CC3)nn2)c1 [Compound 1025, 3-{4-[2-(4-cyclobutylpiperazin-1-yl)-2-oxoethyl]piperazin-1-yl}-6-[3-(methylthio)phenyl] pyridazine] | < 1 µM |
| COc1ccc(-c2ccc(-c3ccc(N4CCN(CC(=O)N5CCN(C6CCC6)CC5)CC4)nn3)cc2)cc1 [Compound 1026, 3-{4-[2-(4-cyclobutylpiperazin-1-yl)-2-oxoethyl]piperazin-1-yl}-6-(4′-methoxybiphenyl-4-yl)pyridazine] | < 1 µM |
| COc1ccc(-c2ccc(N3CCN(CC(=O)N4CCN(C5CCC5)CC4)CC3)nn2)cc1F [Compound 1027, 3-{4-[2-(4-cyclobutylpiperazin-1-yl)-2-oxoethyl]piperazin-1-yl}-6-(3-fluoro-4-methoxyphenyl) pyridazine] | < 1 µM |
| COc1cc(F)c(-c2ccc(N3CCN(CC(=O)N4CCN(C5CCC5)CC4)CC3)nn2)cc1F [Compound 1028, 3-{4-[2-(4-cyclobutylpiperazin-1-yl)-2-oxoethyl]piperazin-1-yl}-6-(2,5-difluoro-4-methoxyphenyl) pyridazine] | < 1 µM |

From US7851474B2, “Dipiperazinyl ketones and related analogues” (Neurogen Corporation, priority 2005, dated 2010)
